Reference: US10472347B2, “Aminopyrazine compounds with A2A antagonist properties” (Merck Sharp & Dohme Corp., priority 2014, dated 2019)

Each compound was assayed against T1, human A2a receptor (Homo sapiens, UniProt P29274) (assay: A2a competition binding assay, Scintillation Proximity technology). Details: membranes from HEK293 cells expressing human A2a receptor; Ki by Cheng-Prusoff equation.
T1 construct: purchased Perkin-Elmer RBHA2AM400UA; host or cells: HEK293 cells (membranes)
How it was run: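 Membranes from HEK293 cells expressing human A2a, adenosine deaminase-treated, incubated 1 h at room temperature with compound (3000 to 0.15 nM) and 0.5 nM tritiated pyrazolotriazolopyrimidine radioligand on WGA SPA beads in Ca/Mg-free PBS + 10 mM MgCl2. Non-specific binding with 1 μM CGS15943; Ki by Cheng-Prusoff.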

T1 sequence (P29274 whole entry): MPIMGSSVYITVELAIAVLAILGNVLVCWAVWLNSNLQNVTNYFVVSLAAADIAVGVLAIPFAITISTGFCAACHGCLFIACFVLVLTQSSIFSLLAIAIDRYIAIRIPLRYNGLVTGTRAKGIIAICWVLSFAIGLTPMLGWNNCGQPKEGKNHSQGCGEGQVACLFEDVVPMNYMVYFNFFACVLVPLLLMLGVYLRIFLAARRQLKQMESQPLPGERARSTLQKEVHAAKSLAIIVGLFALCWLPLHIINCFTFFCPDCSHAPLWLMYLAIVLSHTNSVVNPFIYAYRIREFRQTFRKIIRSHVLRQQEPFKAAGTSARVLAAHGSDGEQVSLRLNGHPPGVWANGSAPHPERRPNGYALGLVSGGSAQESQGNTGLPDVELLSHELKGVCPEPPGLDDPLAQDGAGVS

Ki | SMILES
359 nM | Nc1nc(-n2ccnn2)c(Cl)nc1C(=O)NCc1ccccc1C(F)(F)F [Ex-268, 3-amino-6-chloro-5-(1H-1,2,3-triazol-1-yl)-N-[2-(trifluoromethyl)benzyl] pyrazine-2-carboxamide]
4.3 nM | Nc1nc(-n2nccn2)c(Cl)nc1C(=O)NCc1ccccc1C(F)(F)F [Ex-269, 3-amino-6-chloro-5-(2H-1,2,3-triazol-2-yl)-N-[2-(trifluoromethyl)benzyl] pyrazine-2-carboxamide]
6.19 nM | Nc1nc(-n2nccn2)c(Cl)nc1C(=O)NCc1ccc(F)cc1F [Ex-271, 3-amino-6-chloro-N-(2,4-difluorobenzyl)-5-(2H-1,2,3-triazol-2-yl)pyrazine-2-carboxamide]
269 nM | Nc1nc(-n2ccnn2)c(Cl)nc1C(=O)NCc1cccc2cccnc12 [Ex-272, 3-amino-6-chloro-N-(quinolin-8-ylmethyl)-5-(1H-1,2,3-triazol-1-yl)pyrazine-2-carboxamide]
2.23 nM | Nc1nc(-n2nccn2)c(Cl)nc1C(=O)NCc1cccc2cccnc12 [Ex-273, 3-amino-6-chloro-N-(quinolin-8-ylmethyl)-5-(2H-1,2,3-triazol-2-yl)pyrazine-2-carboxamide]
2 nM | Cc1nc(C(=O)NCc2c(F)cccc2F)c(N)nc1-n1nccn1 [Ex-274, 3-amino-N-(2,6-difluorobenzyl)-6-methyl-5-(2H-1,2,3-triazol-2-yl)pyrazine-2-carboxamide]
2.1 nM | Cc1nc(C(=O)NCc2cccc3cccnc23)c(N)nc1-n1nccn1 [Ex-275, 3-amino-6-methyl-N-(quinolin-8-ylmethyl)-5-(2H-1,2,3-triazol-2-yl)pyrazine-2-carboxamide]
3.3 nM | Cc1cccnc1CNC(=O)c1nc(C)c(-n2nccn2)nc1N [Ex-277, 3-amino-6-methyl-N-[(3-methylpyridin-2-yl)methyl]-5-(2H-1,2,3-triazol-2-yl)pyrazine-2-carboxamide]
59.3 nM | Cc1nc(C(=O)NCc2ccc(Cl)cc2Cl)c(N)nc1-n1nccn1 [Ex-279, 3-amino-N-(2,4-dichlorobenzyl)-6-methyl-5-(2H-1,2,3-triazol-2-yl)pyrazine-2-carboxamide]
148 nM | Cc1nc(C(=O)NC2CCNc3ccccc32)c(N)nc1-n1nccn1 (centres unmarked) [Ex-280, 3-amino-6-methyl-N-(1,2,3,4-tetrahydroquinolin-4-yl)-5-(2H-1,2,3-triazol-2-yl)pyrazine-2-carboxamide]
5.7 nM | Nc1nc(-n2nccn2)c(Cl)nc1C(=O)N[C@@H]1CCc2ccccc21 [Ex-281, 3-amino-6-chloro-N-[(1R)-2,3-dihydro-1H-inden-1-yl]-5-(2H-1,2,3-triazol-2-yl)pyrazine-2-carboxamide]
1.4 nM | Cc1cccnc1CNC(=O)c1nc(Cl)c(-n2nccn2)nc1N [Ex-282, 3-amino-6-chloro-N-[(3-methylpyridin-2-yl)methyl]-5-(2H-1,2,3-triazol-2-yl)pyrazine-2-carboxamide]
2.4 nM | COc1ccccc1CNC(=O)c1nc(Cl)c(-n2nccn2)nc1N [Ex-283, 3-amino-6-chloro-N-(2-methoxybenzyl)-5-(2H-1,2,3-triazol-2-yl)pyrazine-2-carboxamide]
6.5 nM | Nc1nc(-n2nccn2)c(Cl)nc1C(=O)NCc1ccccc1OC(F)(F)F [Ex-284]
124 nM | Nc1nc(-n2nccn2)c(Cl)nc1C(=O)N[C@@H](c1ccccc1)C(F)(F)F [Ex-286, 3-amino-6-chloro-5-(2H-1,2,3-triazol-2-yl)-N-[(1S)-2,2,2-trifluoro-1-phenylethyl]pyrazine-2-carboxamide]
131 nM | C[C@@H](NC(=O)c1nc(Cl)c(-n2nccn2)nc1N)c1ccc2ccccc2n1 [Ex-287, 3-amino-6-chloro-N-[(1R)-1-quinolin-2-ylethyl]-5-(2H-1,2,3-triazol-2-yl)pyrazine-2-carboxamide]
1.9 nM | Nc1nc(-n2nccn2)c(Cl)nc1C(=O)NCc1ccccc1Br [Ex-288, 3-amino-N-(2-bromobenzyl)-6-chloro-5-(2H-1,2,3-triazol-2-yl)pyrazine-2-carboxamide]

The next lines start with the compound.

SMILES | Ki
Cc1ccc(C(C)(C)O)nc1CNC(=O)c1nc(C)c(-c2ncco2)nc1N [Ex-236, 3-amino-N-{[6-(1-hydroxy-1-methylethyl)-3-methylpyridin-2-yl]methyl}-6-methyl-5-(1,3-oxazol-2-yl)pyrazine-2-carboxamide] | 1.61 nM
COc1ccc(C(C)(C)O)nc1CNC(=O)c1nc(C)c(-c2ncco2)nc1N [Ex-237, 3-amino-N-{[6-(1-hydroxy-1-methylethyl)-3-methoxypyridin-2-yl]methyl}-6-methyl-5-(1,3-oxazol-2-yl)pyrazine-2-carboxamide] | 1.77 nM
Cc1nc(C(=O)NC2CC(O)c3cccnc32)c(N)nc1-c1ncco1 (centres unmarked) [Ex-240A, 3-amino-N-(5-hydroxy-6,7-dihydro-5H-cyclopenta[b]pyridin-7-yl)-6-methyl-5-(1,3-oxazol-2-yl)pyrazine-2-carboxamide] | 40.5 nM
Cc1nc(C(=O)NC2CC(O)c3cccnc32)c(N)nc1-c1ncco1 (centres unmarked) [Ex-240B, 3-amino-N-(5-hydroxy-6,7-dihydro-5H-cyclopenta[b]pyridin-7-yl)-6-methyl-5-(1,3-oxazol-2-yl)pyrazine-2-carboxamide] | 1.73 nM
CCn1ncc2c(CNC(=O)c3nc(C)c(-c4ncco4)nc3N)cccc21 [Ex-242, 3-amino-N-[(1-ethyl-1H-indazol-4-yl)methyl]-6-methyl-5-(1,3-oxazol-2-yl)pyrazine-2-carboxamide] | 1.09 nM
CCn1cc2c(CNC(=O)c3nc(C)c(-c4ncco4)nc3N)cccc2n1 [Ex-243, 3-amino-N-[(2-ethyl-2H-indazol-4-yl)methyl]-6-methyl-5-(1,3-oxazol-2-yl)pyrazine-2-carboxamide] | 15.1 nM
Cc1nc(C(=O)NCc2ncccc2C(F)(F)F)c(N)nc1-c1cnco1 [Ex-249, 3-amino-6-methyl-5-(1,3-oxaol-5-yl)-N-{[3-(trifluoromethyl)-pyridin-2-yl]-methyl}pyrazine-2-carboxamide] | 3.45 nM
Nc1nc(-c2cnco2)c(Cl)nc1C(=O)NCc1cccc2cccnc12 [Ex-250, 3-amino-6-chloro-5-(1,3-oxazol-5-yl)-N-(quinolin-8-ylmethyl)pyrazine-2-carboxamide] | 2.4 nM
Cc1nc(C(=O)NCc2c(F)cccc2F)c(N)nc1-c1cnco1 [Ex-251, 3-amino-N-(2,6-difluorobenzyl)-6-methyl-5-(1,3-oxazol-5-yl)pyrazine-2-carboxamide] | 1.1 nM
Cc1cccnc1CNC(=O)c1nc(C)c(-c2cnco2)nc1N [Ex-252, 3-amino-6-methyl-N-[(3-methylpyridin-2-yl)methyl]-5-(1,3-oxazol-5-yl)pyrazine-2-carboxamide] | 1.81 nM
Cc1nc(C(=O)NCc2ccc(F)cc2F)c(N)nc1-c1cnco1 [Ex-253, 3-amino-N-(2,4-difluorobenzyl)-6-methyl-5-(1,3-oxazol-5-yl)pyrazine-2-carboxamide] | 8.57 nM
COc1ccccc1CNC(=O)c1nc(C)c(-c2cnco2)nc1N [Ex-254, 3-amino-N-(2-methoxybenzyl)-6-methyl-5-(1,3-oxazol-5-yl)pyrazine-2-carboxamide] | 1.47 nM
Cc1nc(C(=O)NCc2c(Cl)cccc2Cl)c(N)nc1-c1cnco1 [Ex-255, 3-amino-N-(2,6-dichlorobenzyl)-6-methyl-5-(1,3-oxazol-5-yl)pyrazine-2-carboxamide] | 0.2 nM
Cc1cccc(Cl)c1CNC(=O)c1nc(C)c(-c2cnco2)nc1N [Ex-256, 3-amino-N-(2-chloro-6-methylbenzyl)-6-methyl-5-(1,3-oxazol-5-yl)pyrazine-2-carboxamide] | 0.196 nM
Cc1nc(C(=O)NCc2ncccc2C(F)(F)F)c(N)nc1-c1cnco1 [Ex-257, 3-amino-6-methyl-5-(1,3-oxazol-5-yl)-N-{[3-(trifluoromethyl)pyridin-2-yl]methyl}pyrazine-2-carboxamide] | 1.94 nM
Cc1cc(Cl)cc(Cl)c1CNC(=O)c1nc(C)c(-c2cnco2)nc1N [Ex-258, 3-amino-N-(2,4-dichloro-6-methylbenzyl)-6-methyl-5-(1,3-oxazol-5-yl)pyrazine-2-carboxamide] | 2.9 nM
Cc1nc(C(=O)NC(C)(C)c2ccccn2)c(N)nc1-c1cnco1 [Ex-259, 3-amino-6-methyl-N-(1-methyl-1-pyridin-2-ylethyl)-5-(1,3-oxazol-5-yl)pyrazine-2-carboxamide] | 403 nM
Cc1nc(C(=O)NC(C)(C)c2ccc(F)c(F)c2)c(N)nc1-c1cnco1 [Ex-260, 3-amino-N-[1-(3,4-difluorophenyl)-1-methylethyl]-6-methyl-5-(1,3-oxazol-5-yl)pyrazine-2-carboxamide] | 786 nM
Cc1nc(C(=O)NC(C)(C)c2ccncc2)c(N)nc1-c1cnco1 [Ex-261, 3-amino-6-methyl-N-(1-methyl-1-pyridin-4-ylethyl)-5-(1,3-oxazol-5-yl)pyrazine-2-carboxamide] | 1420 nM
Cc1nc(C(=O)NCC(C)(F)F)c(N)nc1-c1cnco1 [Ex-262, 3-amino-N-(2,2-difluoropropyl)-6-methyl-5-(1,3-oxazol-5-yl)pyrazine-2-carboxamide] | 340 nM
Cc1cccc(CNC(=O)c2nc(C)c(-c3cnco3)nc2N)n1 [Ex-263, 3-amino-6-methyl-N-[(6-methylpyridin-2-yl)methyl]-5-(1,3-oxazol-5-yl)pyrazine-2-carboxamide] | 3.75 nM
Nc1nc(-n2ccnn2)c(Cl)nc1C(=O)NCc1ccc(F)cc1F [Ex-270, 3-amino-6-chloro-N-(2,4-difluorobenzyl)-5-(1H-1,2,3-triazol-1-yl)pyrazine-2-carboxamide] | 6470 nM
CCOC(=O)c1nc(C)c(-n2nccn2)nc1N [Ex-276, ethyl 3-amino-6-methyl-5-(2H-1,2,3-triazol-2-yl)pyrazine-2-carboxylate] | 408 nM
Cc1cccnc1CNC(=O)c1nc(C)c(-n2ccnn2)nc1N [Ex-278, 3-amino-6-methyl-N-[(3-methylpyridin-2-yl)methyl]-5-(1H-1,2,3-triazol-1-yl)pyrazine-2-carboxamide] | 191 nM
